# From patent US4073891A, “N^2 -Arylsulfonyl-L-argininamides and the pharmaceutically acceptable salts thereof” (Mitsubishi Chemical Industries Limited, priority 1974, dated 1978)
# Assays:
# [1] = tested on: mice; assay: acute toxicity (LD50), intraperitoneal administration; assay type: in vivo; conditions: mice (male, 20 g)
# From the text: Representative LD50 values, for example, for N^2 -(5,6,7,8-tetrahydro-1-naphthylsulfonyl)-N-(2-methoxyethyl)glycine, N^2 -(7-methyl-2-naphthylsulfonyl)-N-butylglycine and N^2 -(6,7-dimethyl-1-naphthylsulfonyl)-N-(2-methoxyethyl)glycine are above 1,500 milligrams per kilogram, respectively.
# [2] = molecular target: T1, thrombin (Bos taurus, UniProt P00735); assay: fibrinogen coagulation time; assay type: biochemical; conditions: bovine fibrinogen, thrombin 5 units/ml, borate saline buffer pH 7.4, 25° C; normal coagulation time 50-55 seconds
# T1 construct: purchased Mochida Pharmaceutical Co., Ltd
# Description: The measurement of the fibrinogen coagulation time was conducted as follows:
# Immediately after mixing, the reaction mixture was transferred from the ice bath to a bath maintained at 25° C. Coagulation times were taken as the period between the time of transference to the 25° C bath and the time of the first appearance of fibrin threads. […] The term "concentration required to prolong the coagulation time by a factor of two" is the concentration of an active ingredient required to prolong the normal coagulation time 50-55 seconds to 100-110 seconds.
Concentration required to prolong the coagulation time by a factor of two [2],SMILES,acute toxicity LD50 [1]
4 µM,"CCCCN(CC(=O)O)C(=O)[C@H](CCCNC(=N)N)NS(=O)(=O)c1cccc2c(N(C)C)cccc12 [Sample 24, N^2-(5-dimethylamino-1-naphthylsulfonyl)-L-arginyl-N-butylglycine]",
20 µM,"COCCN(CC(=O)O)C(=O)[C@H](CCCNC(=N)N)NS(=O)(=O)c1cccc2ccc(C)cc12 [Sample 22, N^2-(7-methyl-1-naphthylsulfonyl)-L-arginyl-N-(2-methoxyethyl)glycine]",
20 µM,"CCCCN(CC(=O)O)C(=O)[C@H](CCCNC(=N)N)NS(=O)(=O)c1cccc2c1CCCC2 [Sample 1, N^2-(5,6,7,8-tetrahydro-1-naphthylsulfonyl)-L-arginyl-N-butylglycine]",
0.2 µM,"COCCN(CC(=O)O)C(=O)[C@H](CCCNC(=N)N)NS(=O)(=O)c1ccc2ccc(C)cc2c1 [Sample 15, N^2-(7-methyl-2-naphthylsulfonyl)-L-arginyl-N-(2-methoxyethyl)glycine]",
14 µM,"Cc1ccc2ccc(S(=O)(=O)N[C@@H](CCCNC(=N)N)C(=O)N(CC(=O)O)CC3CCCCC3)cc2c1 [Sample 17, N^2-(7-methyl-2-naphthylsulfonyl)-L-arginyl-N-cyclohexylmethylglycine]",
30 µM,"N=C(N)NCCC[C@H](NS(=O)(=O)c1ccc2c(c1)CCCC2)C(=O)N(CC(=O)O)Cc1ccccc1 [Sample 4, N^2-(5,6,7,8-tetrahydro-2-naphthylsulfonyl)-L-arginyl-N-benzylglycine]",

# The remaining lines, values behind:
SMILES,Concentration required to prolong the coagulation time by a factor of two [2],acute toxicity LD50 [1]
"COCCN(CC(=O)O)C(=O)[C@H](CCCNC(=N)N)NS(=O)(=O)c1cccc2cc(C)c(C)cc12 [Sample 23, N^2-(6,7-dimethyl-1-naphthylsulfonyl)-L-arginyl-N-(2-methoxyethyl)glycine]",10 µM,"above 1,500 milligrams per kilogram"
"COCCN(CC(=O)O)C(=O)[C@H](CCCNC(=N)N)NS(=O)(=O)c1cccc2c1CCCC2 [Sample 3, N^2-(5,6,7,8-tetrahydro-1-naphthylsulfonyl)-L-arginyl-N-(2-methoxyethyl)glycine]",10 µM,"above 1,500 milligrams per kilogram"
"CCCCN(CC(=O)O)C(=O)[C@H](CCCNC(=N)N)NS(=O)(=O)c1ccc2ccc(C)cc2c1 [Sample 14, N^2-(7-methyl-2-naphthylsulfonyl)-L-arginyl-N-butylglycine]",0.3 µM,"above 1,500 milligrams per kilogram"
"CCCCN(C)C(=O)[C@H](CCCNC(=N)N)NS(=O)(=O)c1cccc2c(N(C)C)cccc12 [N^2 -dansyl-N-methyl-N-butyl-L-argininamide, reference compound]",,70 milligrams per kilogram
"CCCCNC(=O)[C@H](CCCNC(=N)N)NS(=O)(=O)c1cccc2c(N(C)C)cccc12 [N^2 -dansyl-N-butyl-L-argininamide, reference compound]",,75 milligrams per kilogram
